Data on ten compounds can be found in US20110201564A1, “SUBSTITUTED 7-SULFANYLMETHYL, 7-SULFINYLMETHYL AND 7-SULFONYLMETHYL INDOLES AND USE THEREOF” (BAYER SCHERING PHARMA AKTIENGESELLSCHAFT, priority 2008, published 2011).

The IC50 is the concentration that gives 50% inhibition.

In series [1] the target is T1, CYP3A4 (Homo sapiens, UniProt P08684).
T1 construct: using human liver microsomes (pool from various individuals); from tissue; host or cells: human liver microsomes (pool from various individuals)
Put plainly: Assay to assess irreversible CYP3A4 inhibition (mechanism-based inhibition) in human liver microsomes. Conditions: CYP3A4 activity as 6β-hydroxytestosterone formation, 2-20 μM. The series is classed as in vitro ADME. The text has this: 8. Assay to Assess Irreversible CYP3A4 Inhibition
Cytochrom P450 enzyme inhibition, especially irreversible enzyme inhibition, also referred to as mechanism-based inhibition (MBI), is an unwanted metabolic property of a substance which may, on concurrent administration of other medicaments, lead to considerable drug interactions. Criteria for the presence of an irreversible inhibition are a time-, concentration- and cofactor- (nicotinamide adenine dinucleotide phosphate, NADPH) dependent inhibition. To this end, the compounds of the invention are incubated in vitro with human liver microsomes, the influence on the CYP3A4 activity and the metabolic degradation of the novel active ingredient is determined, and the prototypical parameters kinact, Ki and the partition ratio r are ascertained therefrom.
The compounds of the invention are incubated with concentrations of 2-20 μM. To this end, stock solutions of the active ingredients with a concentration of 0.2-2 mM are prepared in acetonitrile and then pipetted with a 1:100 dilution into the incubation mixture. The liver microsomes are incubated in 50 mM potassium phosphate buffer (pH 7.4) with and without NADPH-generating system consisting of 1 mM NADP^+, 5 mM glucose 6-phosphate and 1 unit of glucose 6-phosphate dehydrogenase, at 37° C. After defined preincubation times of 0-50 min, aliquots are removed from these mixtures, diluted 1:25 in a new incubation, and incubated in the presence of testosterone and new NADPH-generating system again for 20 min. These incubation mixtures are stopped with acetonitrile (final concentration about 30% v/v), and the protein is removed by centrifugation at about 15 000×g. The samples stopped in this way are either analyzed directly or stored at −20° C. until analyzed.
The analysis takes place by high performance liquid chromatography with mass spectrometry detection (LC-MS). The formation of 6β-hydroxytestosterone as measure of CYP3A4 activity, and the test substance still remaining is quantified. The parameters kinact, Ki and the partition ratio r are determined therefrom so as to assess the novel active ingredients in relation to MBI.

Series [2] deals with T2, human mineralocorticoid receptor (MR) (Homo sapiens, UniProt P08235).
T2 construct: expressed in transfected cells; host or cells: CHO K1
T2 sequence (P08235 734-984 limits assumed): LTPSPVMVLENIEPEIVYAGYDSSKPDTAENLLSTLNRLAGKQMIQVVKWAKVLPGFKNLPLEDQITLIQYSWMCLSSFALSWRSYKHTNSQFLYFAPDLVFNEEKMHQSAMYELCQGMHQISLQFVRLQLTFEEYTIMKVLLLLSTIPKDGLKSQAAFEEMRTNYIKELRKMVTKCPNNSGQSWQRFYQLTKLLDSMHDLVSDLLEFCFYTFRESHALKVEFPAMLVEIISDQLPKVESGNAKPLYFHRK
The series is described as follows: Cellular in vitro assay, GAL4-MR chimera luciferase reporter in CHO K1 cells (inhibitory MR activity). The series is classed as cell-based. As to conditions: antagonism vs aldosterone; CHO K1 GAL4-MR LBD luciferase reporter. The gist of the method: (§1)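 CHO K1 cells stably expressing GAL4 DNA-binding domain fused to human MR, PR or AR ligand-binding domains plus GAL4-driven firefly luciferase; compounds added 10–30 min before agonist (aldosterone, progesterone or dihydrotestosterone), luciferase read after 5–6 h; IC50 from sigmoidal concentration–response curves.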
(In general: A reporter such as luciferase makes a cellular process visible.)

The target of series [3] is T3, androgen receptor (AR) (Homo sapiens, UniProt P10275).
T3 construct: of the androgen receptor (AR, amino acids 667-919); expressed in transfected cells; host or cells: CHO K1
T3 sequence (P10275 668-920): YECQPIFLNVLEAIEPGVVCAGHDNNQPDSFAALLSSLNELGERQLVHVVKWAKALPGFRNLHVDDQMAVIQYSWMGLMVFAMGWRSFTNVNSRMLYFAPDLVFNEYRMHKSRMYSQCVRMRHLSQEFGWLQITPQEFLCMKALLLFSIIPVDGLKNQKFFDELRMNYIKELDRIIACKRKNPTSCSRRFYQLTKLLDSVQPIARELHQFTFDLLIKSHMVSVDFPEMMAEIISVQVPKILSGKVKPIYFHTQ
Put plainly: Cellular in vitro assay, GAL4-AR chimera luciferase reporter in CHO K1 cells (selectivity). The series is classed as cell-based. As to conditions: antagonism vs dihydrotestosterone; CHO K1 GAL4-AR LBD luciferase reporter. The gist of the method: as §1

T1 sequence (P08684 whole entry): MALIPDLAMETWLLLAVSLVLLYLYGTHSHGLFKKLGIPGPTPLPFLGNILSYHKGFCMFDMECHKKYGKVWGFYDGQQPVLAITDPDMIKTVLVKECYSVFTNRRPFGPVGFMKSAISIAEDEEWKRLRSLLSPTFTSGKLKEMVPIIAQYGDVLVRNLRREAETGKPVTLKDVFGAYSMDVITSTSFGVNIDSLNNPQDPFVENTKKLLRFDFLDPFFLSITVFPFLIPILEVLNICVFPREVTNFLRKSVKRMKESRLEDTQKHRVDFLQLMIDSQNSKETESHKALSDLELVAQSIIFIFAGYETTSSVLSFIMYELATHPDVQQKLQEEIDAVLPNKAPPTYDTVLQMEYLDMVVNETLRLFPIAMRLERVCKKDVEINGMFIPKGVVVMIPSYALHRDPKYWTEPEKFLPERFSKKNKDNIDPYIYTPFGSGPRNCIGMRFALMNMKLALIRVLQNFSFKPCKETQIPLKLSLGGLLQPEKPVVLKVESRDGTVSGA

As for `CS(=O)(=O)Cc1cccc2c(C(CCC#N)c3ccc(Cl)cc3F)c[nH]c12` (single isomer, unassigned) [Example 59-1, 4-(4-Chloro-2-fluorophenyl)-4-{7-[(methylsulfonyl)methyl]-1H-indol-3-yl}butanonitrile], the Partition ratio r in series [1] was determined as 220. Moreover, the IC50 in series [2] came out at 80 nM; in series [3] it was 7760 nM.
Regarding `CS(=O)(=O)Cc1cccc2c(C(c3ccc(Cl)cc3)C3CC3(F)F)c[nH]c12` (single isomer, unassigned) [Example 261-1, 3-[(4-Chlorophenyl)(2,2-difluorocyclopropyl)methyl]-7-[(methylsulfonyl)methyl]-1H-indole], the Partition ratio r in series [1] is recorded as greater than 200. The IC50 was found to be 33 nM in series [2] and 5640 nM in series [3].
Turning to `CS(=O)(=O)Cc1cc(F)cc2c(C(c3ccc(C(F)(F)F)cc3F)C3CC3C#N)c[nH]c12` (single isomer, unassigned) [Example 271-1-1, 2-({5-Fluoro-7-[(methylsulfonyl)methyl]-1H-indol-3-yl}[2-fluoro-4-(trifluoro-methyl)phenyl]methyl)cyclopropanecarbonitrile], the Partition ratio r in series [1] is greater than 200. Moreover, the figures for the IC50 in series [2] and in series [3] were 6 nM and 940 nM, respectively.
With `CS(=O)(=O)Cc1cc(F)cc2c(C(c3ccc(Cl)cc3F)C3CC3C#N)c[nH]c12` (single isomer, unassigned) [Example 273-1-2, 2-[(4-Chloro-2-fluorophenyl){5-fluoro-7-[(methylsulfonyl)methyl]-1H-indol-3-yl}methyl]cyclopropanecarbonitrile], the Partition ratio r in series [1] is recorded as greater than 200. Further, the IC50 is 6 nM in series [2] and 980 nM in series [3].
On the same counts, the results for `CS(=O)(=O)Cc1cccc2c(C(CCC#N)c3ccc4sccc4c3)c[nH]c12` (stereo not drawn) [Example 73, 4-(1-Benzothiophen-5-yl)-4-{7-[(methylsulfonyl)methyl]-1H-indol-3-yl}butanonitrile] are greater than 500, 90 nM and 5220 nM.
The matching figures for `CS(=O)(=O)Cc1cccc2c(C3(C4CC4)CCc4cc(F)ccc43)c[nH]c12` (stereo not drawn) [Example 107, 3-(1-Cyclopropyl-5-fluoro-2,3-dihydro-1H-inden-1-yl)-7-[(methylsulfonyl)methyl]-1H-indole]: greater than 400, 20 nM and 3330 nM.
The matching figures for `CS(=O)(=O)Cc1cccc2c(C(c3ccc(F)cc3)c3ccc(C(F)(F)F)cc3)c[nH]c12` (stereo not drawn) [Example 113, 3-{(4-Fluorophenyl) [4-(trifluoromethyl)phenyl]methyl}-7-[(methylsulfonyl)methyl]-1H-indole]: greater than 500, 130 nM and 3220 nM.
Turning to `CCC(CCO)(c1ccc(Cl)cc1)c1c[nH]c2c(CS(C)(=O)=O)cccc12` (stereo not drawn) [Example 147, 3-(4-Chlorophenyl)-3-{7-[(methylsulfonyl)methyl]-1H-indol-3-yl}pentan-1-ol], the Partition ratio r in series [1] turned out to be 90. For the same compound, the IC50 in series [2] was 30 nM; in series [3] it was 3020 nM.
Regarding `CS(=O)(=O)Cc1cccc2c(C(CCC#N)c3ccc4c(c3)OC(F)(F)O4)c[nH]c12` (stereo not drawn) [Example 169, 4-(2,2-Difluoro-1,3-benzodioxol-5-yl)-4-{7-[(methylsulfonyl)methyl]-1H-indol-3-yl}butanonitrile], the Partition ratio r in series [1] is recorded as greater than 500. Also, the IC50 in series [2] is 110 nM; in series [3] it was 2280 nM.
For `CCC(CCC#N)(c1ccc(Cl)cc1)c1c[nH]c2c(CS(C)(=O)=O)cccc12` (stereo not drawn) [Example 172, 4-(4-Chlorophenyl)-4-{7-[(methylsulfonyl)methyl]-1H-indol-3-yl}hexanonitrile], the Partition ratio r in series [1] was found to be 120. Further, the IC50 in series [2] came to 20 nM; in series [3] it was 5280 nM.
